Broadly, the logP is a log measure of how a compound divides between an organic and an aqueous phase. Read a high logP as higher lipophilicity.

Consider `CCCCCCCC/C=C\CCCCCCCCCCCC(=O)OC`, for which the lipophilicity (logP) came to 9.32.
`CCCCCCCCCCCCCCCCCCCC(=O)OC` returned a logP of 9.3.
The result for `CCCCCCCCCCCC(=O)OCCCC` reads 6.51; that for `CCCCCCCCCCCC(=O)OCCC`, 6.11; that for `CCCCCCCCCCCCCCCCCCCCCC(=O)OC`, 10.2.
In turn, `CCCCCCCCCCCCCCCC(=O)OC` registered a logP of 7.38.
In the case of `CCCCC/C=C\C/C=C\CCCCCCCC(=O)OC` it was 6.82; in that of `CCCCCCCCCCCCCCCCCC(=O)OC`, 8.35.
`CCCCCCCCCCCC(=O)OCC` gave a logP of 5.71.
Consider `CCCCCCCCCCCCCC(=O)OC`, for which the logP turned out to be 6.41.
In turn, `CCCCCCCC/C=C\CCCCCCCC(=O)OC` returned a lipophilicity (logP) of 7.45.
Turning to `CCCCCCCCCCCC(=O)OC`, the logP is 5.41.
In the case of `CCCCCCCCCCCC(=O)OCC(CC)CCCC` (stereo not given) it was 8.03; in that of `CCCCCCCCCC(=O)OC`, 4.42.
As for `CC/C=C\C/C=C\C/C=C\CCCCCCCC(=O)OC`, the logP is 6.29.

Values taken from the SangsterLogP compilation.
